# Bridge positions count the residues as written; N and C are the ends. Square brackets hold non-standard residues; d marks the D form. S5 = C=CCCC[C@](C)(N)C(=O)O; Nle = CCCC[C@H](N)C(=O)O
# Experiments:
# Type in all cases: cell-based, human
# TNFα = assay: LPS-stimulated THP-1 monocytes, TNFα in culture supernatant by ELISA
# Experimental: (§1) THP1 cells were cultured (300 000 cells/well) in RPMI 1640 supplemented with 10% fetal calf serum, 1% penicillin/streptomycin and L-glutamine. The cells were treated with 0.1 μg/ml LPS for 6 h for TNFα, and 24 h for IL-6 and IL-1β. The peptides were solubilized in 4% DMSO and used at 5 and 20 μM. The peptides were added at the same time as the LPS. The determination of the cytokines in the culture supernatants was carried out with the specific ELISA kits (eBioscience).
# (§2) For all conditions tested, THP-1 monocytes were cultured (300 000 cells/well) in RPMI with 10% fetal calf serum; 1% penicillin/streptomycin and L-glutamine. THP-1 were treated with 0.1 μg/mL of LPS for 24 hours, stapled-peptides IRAK2-S1 et IRAKM-S1 were used at 1 to 20 μM and added at the same time for condition A, 6 hours before LPS for condition B and 6 hours after LPS for condition C. The quantification of cytokine in the culture supernatants was carried out with specific IL-6 and TNFα ELISA (eBioscience).
# (§3) For all conditions tested, THP-1 monocytes were cultured (300 000 cells/well) in RPMI with 10% fetal calf serum; 1% penicillin/streptomycin and L-glutamine. THP-1 were treated with 0.1 μg/mL of LPS for 24 hours, stapled-peptides IRAK2-S1, IRAK2-JMV6649, IRAKM-S1 and IRAKM-JMV6650 were used at 10 to 20 μM and added at the same time for «Simultaneous» condition, 6 hours before LPS for «preventive» condition and 6 hours after LPS for «curative» condition. Using ELISA (eBioscience), IL-6 and TNFα quantification was carried out in monocyte culture supernatants.
# IL-6 = assay: LPS-stimulated THP-1 monocytes, IL-6 in culture supernatant by ELISA; conditions: for effect on the expression level of IL-6: curative condition (peptide 6 hours after LPS), 1 to 20 μM; for IL-6 expression compared with the S1 peptide: curative condition; for efficacy on IL-6 compared with the IRAK2 peptide (IRAK2-S1): 10 to 20 μM
# Experimental: as §1, §2, §3
# [1] = test system: CHOP, BIP and GRP94 genes; assay: Tunicamycin-induced ER stress in THP-1 cells, expression of the CHOP, BIP and GRP94 genes by RT-qPCR; conditions: THP-1, tunicamycin 0.1 μg/ml
# Experimental: To assess the specificity of recognition of stapled peptides IRAK2, we induced ER stress in human monocytic cell line THP-1 by treatment with tunicamycin (0.1 μg/ml) for 8 h and 24 h.
# THP-1 cells were cultured (300 000 cells/well) in RPMI 1640 supplemented with 10% fetal calf serum, 1% penicillin/streptomycin and L-glutamine. The cells were treated with 0.1 μg/ml tunicamycin for 30 min, 8 H or 24 H. The peptide was solubilized in 4% DMSO and used at concentrations ranging from 1 to 20 μM. Total cell RNAs were extracted with the miRNeasy kit (Qiagen), the expression levels of the genes were measured by RT-qPCR with Taqman assays (Lifetechnology) technology.
# We have shown that IRAK2 is the main kinase expressed at 8 h, compared to IRAK1 (FIG. 3A). Measurement of the expression of the CHOP, BIP and GRP94 genes validated the activation of the ER stress at 8H as expected according to literature (FIG. 3B). In this study the peptides IRAK2 Li, IRAKM Li, IRAK2 S1, IRAK2 S2 (Li for linear peptide and S1 and S2 for stapled peptide) were tested. […] This inhibition was specific since, stapled peptide concentration of 20 μM, control stapled peptide (Mock S) has no effect (FIG. 3D).
# IL-1β [2] = assay: LPS-stimulated THP-1 monocytes, IL-1β in culture supernatant by ELISA; conditions: THP1, LPS 0.1 μg/ml 24 h, peptide 5 and 20 μM added at the same time as LPS
# Experimental: as §1
# THP-1 cells = assay: Viability and morphology of PMA-treated THP-1 cells with peptide; conditions: THP-1, peptide 20 μM
# Experimental: (§4) We stimulated the THP-1 monocytes with 0.1 μg/ml PMA for 48 h to induce differentiation into macrophages, and treated with 20 μM stapled peptide (IRAK2-S1 or Mock-S).
# (§5) THP1 cells were cultured (300,000 cells/well) in RPMI 1640 supplemented with 10% fetal calf serum, 1% penicillin/streptomycin and L-glutamine. The cells were treated with 0.1 μg/ml of PMA for 48 h. The peptides were solubilized in 4% DMSO and used at 20 μM. The peptides are added together with the PMA. Total RNA of the cells were extracted by the miRNeasy kit (Qiagen), the level of expression of IL-1β was measured by RT-qPCR technology by Taqman assays (lifetechnology)
# (§6) After extraction of the RNAs, we quantified by RT-qPCR the level of expression of the RNA of IL-1β (FIG. 4A). Using ELISA method, the cytokine secretion was measured in the supernatant of the treated THP-1 (FIG. 4B). The IRAK2-S1 peptide was able to block the expression and production of IL-1β at 20 μM. At this concentration, the peptide appears to have no effect on viability and morphology of the cells.
# IL-1β [3] = assay: PMA-induced macrophage differentiation of THP-1 monocytes, IL-1β RNA (RT-qPCR) and secretion (ELISA); conditions: THP-1, PMA 0.1 μg/ml 48 h, peptide 20 μM
# Experimental: as §4, §5, §6
# [4] = simultaneous condition, peptide 20 μM
# [5] = curative condition (peptide 6 hours after LPS), 10 μM
# [6] = curative condition (peptide 6 hours after LPS), 20 μM
# [7] = preventive condition (peptide 6 hours before LPS), 20 μM
# [8] = simultaneous condition, LPS 0.1 μg/mL 24 h, peptide 10 and 20 μM
# [9] = preventive condition (peptide 6 hours before LPS), 10 μM
substance,measurement,setting,value
"Ac-ITF-S5-NLL-S5-YYGP-NH2 (Ac-ITF[S5]NLL[S5]YYGP-NH2; staple 4-8; SMILES CC[C@H](C)[C@H](NC(C)=O)C(=O)N[C@H](C(=O)N[C@@H](Cc1ccccc1)C(=O)N[C@@]1(C)CCCC=CCCC[C@@](C)(C(=O)N[C@@H](Cc2ccc(O)cc2)C(=O)N[C@@H](Cc2ccc(O)cc2)C(=O)NCC(=O)N2CCC[C@H]2C(N)=O)NC(=O)[C@H](CC(C)C)NC(=O)[C@H](CC(C)C)NC(=O)[C@H](CC(N)=O)NC1=O)[C@@H](C)O) [Mock-S, reference compound]",inhibition of TNFα expression,TNFα; [4],15 to 20%
same,inhibition of IL-6 expression,IL-6; [4],15 to 20%
same,expression of ER stress genes (specificity control),[1]; peptide 20 μM,no effect
Ac-KSG-S5-REL-S5-WSWAQK-NH2 (Ac-KSG[S5]REL[S5]WSWAQK-NH2; staple 4-8; SMILES CC(=O)N[C@@H](CCCCN)C(=O)N[C@@H](CO)C(=O)NCC(=O)N[C@@]1(C)CCCC=CCCC[C@@](C)(C(=O)N[C@@H](Cc2c[nH]c3ccccc23)C(=O)N[C@@H](CO)C(=O)N[C@@H](Cc2c[nH]c3ccccc23)C(=O)N[C@@H](C)C(=O)N[C@@H](CCC(N)=O)C(=O)N[C@@H](CCCCN)C(N)=O)NC(=O)[C@H](CC(C)C)NC(=O)[C@H](CCC(=O)O)NC(=O)[C@H](CCCNC(=N)N)NC1=O) [IRAKM-S1],inhibition of TNFα secretion,TNFα; [5],No inhibition
same,inhibition of TNFα secretion,TNFα; [6],15 to 20%
same,inhibition of TNFα secretion,TNFα; [7],95%
same,inhibition of TNFα secretion,TNFα; [8],significantly inhibit
same,inhibition of TNFα expression,TNFα; [4],up to 95%
same,effect on the expression level of IL-6,IL-6,no effect
same,inhibition of IL-6 secretion,IL-6; [7],90%
same,inhibition of IL-6 secretion,IL-6; [8],significantly inhibit
same,inhibition of IL-6 expression,IL-6; [4],≤ 90%
Ac-KSG-S5-REL-S5-WSWAQKNKTI-NH2 (Ac-KSG[S5]REL[S5]WSWAQKNKTI-NH2; staple 4-8; SMILES CC[C@H](C)[C@H](NC(=O)[C@@H](NC(=O)[C@H](CCCCN)NC(=O)[C@H](CC(N)=O)NC(=O)[C@H](CCCCN)NC(=O)[C@H](CCC(N)=O)NC(=O)[C@H](C)NC(=O)[C@H](Cc1c[nH]c2ccccc12)NC(=O)[C@H](CO)NC(=O)[C@H](Cc1c[nH]c2ccccc12)NC(=O)[C@]1(C)CCCC=CCCC[C@](C)(NC(=O)CNC(=O)[C@H](CO)NC(=O)[C@H](CCCCN)NC(C)=O)C(=O)N[C@@H](CCCNC(=N)N)C(=O)N[C@@H](CCC(=O)O)C(=O)N[C@@H](CC(C)C)C(=O)N1)[C@@H](C)O)C(N)=O) [IRAKM-JMV6649],increase of inhibition of TNFα expression compared with IRAKM-S1,"TNFα; curative condition, 20 μM",not significant
same,greater inhibition of TNFα expression compared with IRAKM-S1,"TNFα; preventive condition, 10 μM",20%
same,additive inhibitory effect on TNFα expression compared with IRAKM-S1,"TNFα; simultaneous condition, 20 μM",no additive inhibitory effect
same,IL-6 expression compared with the S1 peptide,IL-6; 20 μM,not significant
same,additional inhibition of IL-6 expression compared with IRAKM-S1,"IL-6; preventive condition, 10 μM",60%
same,additional inhibition of IL-6 expression compared with IRAKM-S1,"IL-6; preventive condition, 20 μM",80%
same,decrease of IL-6 secretion compared with IRAKM-S1,"IL-6; simultaneous condition, 20 μM",more than 70%
Ac-S5-REL-S5-WWWGBRQA-NH2 (Ac-[S5]REL[S5]WWWG[Nle]RQA-NH2; staple 1-5; SMILES CCCC[C@H](NC(=O)CNC(=O)[C@H](Cc1c[nH]c2ccccc12)NC(=O)[C@H](Cc1c[nH]c2ccccc12)NC(=O)[C@H](Cc1c[nH]c2ccccc12)NC(=O)[C@]1(C)CCCC=CCCC[C@](C)(NC(C)=O)C(=O)N[C@@H](CCCNC(=N)N)C(=O)N[C@@H](CCC(=O)O)C(=O)N[C@@H](CC(C)C)C(=O)N1)C(=O)N[C@@H](CCCNC(=N)N)C(=O)N[C@@H](CCC(N)=O)C(=O)N[C@@H](C)C(N)=O) [IRAK2-S1],TNFα secreted after LPS stimulation,"TNFα; THP1, LPS 0.1 μg/ml 6 h, peptide 5 and 20 μM added at the same time as LPS",reduced the expression of the 3 cytokines in a dose-dependent manner
same,inhibition of TNFα secretion,TNFα; [5],≤ 30%
same,inhibition of TNFα secretion,TNFα; [6],≤ 70%
same,inhibition of TNFα expression,TNFα; [9],No inhibition
same,inhibition of TNFα secretion,TNFα; [7],15 to 20%
same,inhibition of TNFα secretion,TNFα; [8],significantly inhibit
same,IL-1β secreted after LPS stimulation,IL-1β [2],reduced the expression of the 3 cytokines in a dose-dependent manner
same,IL-6 secreted after LPS stimulation,"IL-6; THP1, LPS 0.1 μg/ml 24 h, peptide 5 and 20 μM added at the same time as LPS",reduced the expression of the 3 cytokines in a dose-dependent manner
same,effect on the expression level of IL-6,IL-6,no effect
same,inhibition of IL-6 expression,IL-6; [9],No inhibition
same,inhibition of IL-6 secretion,IL-6; [7],15 to 20%
same,inhibition of IL-6 secretion,IL-6; [8],significantly inhibit
same,"expression of CHOP, GRP94 and BIP (ER stress)","[1]; simultaneous treatment, peptide 1 to 20 μM, RT-qPCR",blocked in a dose-dependent manner
same,effect on viability and morphology of the cells,THP-1 cells,no effect
same,production of IL-1β in supernatant,IL-1β [3]; ELISA,able to block
same,expression of IL-1β RNA,IL-1β [3]; RT-qPCR,able to block
Ac-VSI-S5-REL-S5-WWWGBRQATV-NH2 (Ac-VSI[S5]REL[S5]WWWG[Nle]RQATV-NH2; staple 4-8; SMILES CCCC[C@H](NC(=O)CNC(=O)[C@H](Cc1c[nH]c2ccccc12)NC(=O)[C@H](Cc1c[nH]c2ccccc12)NC(=O)[C@H](Cc1c[nH]c2ccccc12)NC(=O)[C@]1(C)CCCC=CCCC[C@](C)(NC(=O)[C@@H](NC(=O)[C@H](CO)NC(=O)[C@@H](NC(C)=O)C(C)C)[C@@H](C)CC)C(=O)N[C@@H](CCCNC(=N)N)C(=O)N[C@@H](CCC(=O)O)C(=O)N[C@@H](CC(C)C)C(=O)N1)C(=O)N[C@@H](CCCNC(=N)N)C(=O)N[C@@H](CCC(N)=O)C(=O)N[C@@H](C)C(=O)N[C@H](C(=O)N[C@H](C(N)=O)C(C)C)[C@@H](C)O) [IRAK2-JMV6650],additional inhibition of TNFα production compared with the S1 peptide,"TNFα; curative condition, 10 to 20 μM",not significant
same,efficacy on TNFα compared with the IRAK2 peptide (IRAK2-S1),"TNFα; preventive condition, 10 to 20 μM, data not shown",No more efficacy
same,efficacy on TNFα compared with the IRAK2 peptide (IRAK2-S1),"TNFα; simultaneous condition, 10 to 20 μM",No more efficacy
same,IL-6 expression compared with the S1 peptide,IL-6; 20 μM,acts as IRAK2-S1
same,efficacy on IL-6 compared with the IRAK2 peptide (IRAK2-S1),"IL-6; preventive condition, data not shown",No more efficacy
same,efficacy on IL-6 compared with the IRAK2 peptide (IRAK2-S1),IL-6; simultaneous condition,No more efficacy
